In patent US4977180A, “Novel prolinal derivatives” (Ono Pharmaceutical Co., Ltd., priority 1987, dated 1990):
Where a SMILES comes first, the peptide text is derived from it. [ ]: non-standard residue; d: D form. The star is where a group is joined. ξ: configuration not given here. Cbz = O=C(OCc1ccccc1)*; ξP = O=C(O)C1CCCN1; CH2Cl = ClC*

Biological target: T1, prolyl endopeptidase (Bos taurus, UniProt Q9XTA2)
T1 construct: prolyl endopeptidase which was purified from bovine brain; from tissue; host or cells: bovine brain
Assay: Prolyl endopeptidase inhibitory activity in vitro
Assay type: biochemical
Conditions: prolyl endopeptidase purified from bovine brain, pH 7.5, 37° C., substrate N-benzyloxycarbonyl-glycyl-prolyl-p-nitroanilide, 30 mins' incubation, read-out: Concentration for 50% inhibition IC50
Procedure: Inhibitory activity of prolyl endopeptidase in vitro was measured by the following test system.
A mixed solution of 20 mM tris-HCl buffer (pH 7.5; 935 μl; containing 10 mM EDTA and 10 mM mercaptoethanol), a solution of a compound of the present invention in DMSO (10 μl) and a solution of prolyl endopeptidase which was purified from bovine brain (0.13 unit; prepared by the method described in J. Biochem., 94, 1179 (1983)) in tris-HCl buffer (15 μl) was preincubated for 15 mins at 37° C.
To the solution, 5 mM of N-benzyloxycarbonyl-glycyl-prolyl-p-nitroanilide (40 μl) in a mixture of 40% dioxane-60% water was added. The solution was incubated for 1 min at the same temperature.
Optical absorption (a1) at 405 nm of the solution, and optical absorption (a2) at 405 nm of the solution after 30 mins' further incubation at 37° C. were measured.
Optical absorptions (b1 and b2) of the solutions using DMSO instead of the solution of the compound of the present invention were also measured.
Inhibitory ratio was calculated by the following expression and IC50 (required concentration for 50% inhibition) was obtained (See Protein, Nucleic acid and Enzyme 25(6), 513, 1980.). [formula]

T1 sequence (Q9XTA2 whole entry): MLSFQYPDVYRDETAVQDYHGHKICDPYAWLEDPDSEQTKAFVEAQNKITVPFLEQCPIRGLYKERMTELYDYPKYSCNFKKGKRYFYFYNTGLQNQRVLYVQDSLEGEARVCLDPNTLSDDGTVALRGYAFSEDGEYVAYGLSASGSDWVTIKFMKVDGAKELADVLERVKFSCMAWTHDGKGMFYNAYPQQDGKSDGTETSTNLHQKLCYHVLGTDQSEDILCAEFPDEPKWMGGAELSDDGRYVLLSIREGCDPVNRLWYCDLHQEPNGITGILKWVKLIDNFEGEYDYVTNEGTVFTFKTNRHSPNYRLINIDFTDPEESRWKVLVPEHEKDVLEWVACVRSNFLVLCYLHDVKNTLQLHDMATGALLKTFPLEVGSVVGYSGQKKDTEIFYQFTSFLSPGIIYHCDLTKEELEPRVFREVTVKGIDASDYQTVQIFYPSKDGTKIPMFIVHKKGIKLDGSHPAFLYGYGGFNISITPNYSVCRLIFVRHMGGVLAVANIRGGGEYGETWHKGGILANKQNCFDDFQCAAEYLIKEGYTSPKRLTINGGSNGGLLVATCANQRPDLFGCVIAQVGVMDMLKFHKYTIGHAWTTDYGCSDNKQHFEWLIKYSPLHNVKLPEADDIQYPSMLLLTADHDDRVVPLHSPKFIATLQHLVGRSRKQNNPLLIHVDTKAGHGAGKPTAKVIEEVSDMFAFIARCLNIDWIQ

SMILES | IC50 [nM]
O=C[C@@H]1CCCN1C(=O)[C@@H]1CCCC[C@H]1C(=O)CCc1ccccc1 (mixture of isomers) [1 (c), N-[trans-2-(3-phenylpropanoyl)cyclohexanecarbonyl]-L-prolinal] | 24
O=C[C@@H]1CCCN1C(=O)CCC(=O)CCc1ccc(Cl)cc1 [1 (h), N-[6-(4-chlorophenyl)-4-oxohexanoyl]-L-prolinal] | 29
CC(C)C(C(=O)CCCCc1ccccc1)C(=O)N1CCC[C@H]1C=O (stereo partly drawn) [1 (d), N-(2RS-isopropyl-3-oxo-7-phenylheptanoyl)-L-prolinal] | 150
O=C[C@@H]1CCCN1C(=O)CCC(=O)CCc1cccc2ccccc12 [1 (k), N-[6-(1-naphthyl)-4-oxohexanoyl]-L-prolinal] | 18
Cc1ccc(CCC(=O)CCC(=O)N2CCC[C@H]2C=O)cc1 [1 (i), N-[6-(4-methylphenyl)-4-oxohexanoyl]-L-prolinal] | 11
O=C[C@@H]1CCCN1C(=O)CCC(=O)CCc1cccc(Cl)c1 [1 (e), N-[6-(3-chlorophenyl)-4-oxohexanoyl]-L-prolinal] | 50
O=C[C@@H]1CCCN1C(=O)CCC(=O)CCCCc1ccccc1 [1 (f), N-(4-oxo-8-phenyloctanoyl)-L-prolinal] | 62
O=C[C@@H]1CCCN1C(=O)CCC(=O)CCCc1ccccc1 [Example 1, N-(7-phenyl-4-oxoheptanoyl)-L-prolinal] | 27
O=C[C@@H]1CCCN1C(=O)CCC(=O)CCc1ccc(C(F)(F)F)cc1 [1 (m), N-[4-oxo-6-(p-trifluoro-methylphenyl)hexanoyl]-L-prolinal] | 15
O=C[C@@H]1CCCN1C(=O)CCC(=O)CCCc1ccccc1[N+](=O)[O-] [1 (j), N-[7-(2-nitrophenyl)-4-oxoheptanoyl]-L-prolinal] | 32
O=C[C@@H]1CCCN1C(=O)CCC(=O)CCc1ccccc1 [1 (a), N-(6-phenyl-4-oxohexanoyl) L-prolinal] | 120
COc1ccc(CCC(=O)CCC(=O)N2CCC[C@H]2C=O)cc1 [1 (g), N-[6-(4-methoxyphenyl)-4-oxohexanoyl]-L-prolinal] | 84
O=C[C@@H]1CCCN1C(=O)CCC(=O)CCc1ccc2ccccc2c1 [1 (l), N-[6-(2-naphthyl)-4-oxohexanoyl]-L-prolinal] | 39
O=C[C@@H]1CCCN1C(=O)[C@@H]1CCC[C@H]1C(=O)CCc1ccccc1 (mixture of isomers) [1 (b), N-[trans-2-(3-phenylpropanoyl)cyclopentanecarbonyl]-L-prolinal] | 14

Test system: prolyl endopeptidase
Assay: not given
Conditions: in words; J. Neurochem., 41, 69 (1983); cited from earlier work

SMILES | inhibits prolyl endopeptidase
O=C(NCC(=O)N1CCC[C@H]1C(=O)CCl)OCc1ccccc1 [N-benzyloxycarbonyl-glycyl-L-prolyl-chloromethane] (Cbz-Gly-Pro-CH2Cl) | strongly inhibits prolyl endopeptidase
O=CC1CCCN1C(=O)[C@@H]1CCCN1C(=O)OCc1ccccc1 (stereo partly drawn) [N-benzyloxycarbonyl-L-propyl-prolinal] (Cbz-Pro-[ξP]-aldehyde) | strongly inhibits prolyl endopeptidase
